Four molecules from patent US11382347B2, “Natural cooling formulations” (WM. WRIGLEY JR. COMPANY, priority 2015, dated 2022) can be followed below.

The assay in a line: Sensory panel screening of natural coolants versus menthol in sugar solution (Example 1). The assay is classed as in vivo, human. The following applies: 100 ppm in 5% sugar solution, 10 mL held 10 s, panel N=6; for Cooling Relative to 100 ppm Menthol: 9-point scale, menthol fixed as 5.0. The procedure: 100 ppm of naturally sourced menthyl lactate, menthyl succinate, and isopulegol were screened in 5% sugar solution for cooling and bitterness properties relative to 100 ppm menthol in 5% sucrose solution.
10 mL of each sample was orally evaluated by a panel (N=6) for 10 seconds, then expectorated. Cooling strength, flavor strength, and bitterness or off-taste was evaluated on a 9-point scale in comparison to 100 ppm menthol evaluated as a control, with 0 being the lowest and 9 being the highest measure on the scale. Subjects evaluated the coolant attributes at T0 (immediately after expectorating), 1, 2, 5 and 10 minute time points post expectoration.
Prior to the test, each subject calibrated their cooling and bitterness scale by performing the same evaluation on 10 mL of 100 ppm of L-menthol (prepared the same way as the natural coolants). The menthol solution was held in the mouth for 10 seconds as a calibration sample and the cooling strength and bitterness were fixed as 5.0 at the initial T0 time point.
Panelists were asked to rate the cooling and bitterness intensity of the compounds in solution, relative to the solution of 100 ppm of menthol, when tested in comparative screenings. The ratings are summarized in Table 1, showing the cooling and bitterness of the coolants compared to menthol.

Regarding `C=C(C)C1CCC(C)CC1O` (centres unmarked) [Natural Isopulegol, isopulegol], the “Bitterness Relative to 100 ppm Menthol” value came to 0.8 and the “Cooling Relative to 100 ppm Menthol” value is 0.7.
In the same order, the values of `CC1CCC(C(C)C)C(OC(=O)CCC(=O)O)C1` (centres unmarked) [Natural Menthyl Succinate, mono-menthyl succinate] are 0.8 and 0.6.
Consider `CC1CCC(C(C)C)C(O)C1` (centres unmarked) [Menthol (Control), menthol, reference compound], for which the “Bitterness Relative to 100 ppm Menthol” value was found to be 1.0 and the “Cooling Relative to 100 ppm Menthol” value came to 1.0.
Turning to `CC1CCC(C(C)C)C(OC(=O)C(C)O)C1` (centres unmarked) [Natural Menthyl Lactate, menthyl lactate], the “Bitterness Relative to 100 ppm Menthol” value amounted to 1.7 and the “Cooling Relative to 100 ppm Menthol” value came out at 1.1.
